Measured values reported in US20140011826A1, “METABOTROPIC GLUTAMATE RECEPTOR GROUP I ANTAGONISTS FOR TREATMENT OF ABNORMAL UNION OF TISSUE” (priority 2011, published 2014).

System: post-operative intra abdominal adhesions
Experiment: Post-operative intra abdominal adhesion formation in rat after laparotomy and musculoperitoneal incision
Type: in vivo
Description: Reduction in the occurrence of post-operative intra abdominal adhesions in rat by treatment with the mGluRgIa compound 2-methyl-6-(phenylethynyl)-pyridine (MPEP) at a dose of 12.5 mg/kg 12 male Sprague-Dawleys rats (Charles River Laboratories International, Sutzfeld, Germany), weighing between 250 to 300 g at the initiation of the procedure, were kept at a number of two individuals in one cage of type H3, lined with wood chips and housed in standardized conditions, at a constant room temperature (22° C.) with 12-hour light and dark cycles. All animals were provided free access to standard rodent chow, tap water, nesting material and libitum. All surgical procedures were performed under aseptic conditions in a dedicated surgical animal operating room. The animals were anesthetized using continuous inhalation isoflurane 1.5% to 4% in oxygen, numbered and randomly assigned to two groups of 6 individuals each: one treatment group and one vehicle group. After shaving and disinfection of the abdomen, a 50 mm long midline laparotomy was performed to gain access to the abdominal cavity. A 18 mm long sharp incision was then made through the musculoperitoneal tissue on the left lateral abdominal wall below the epigastric vessel parallel with the midline incision. The injury site was immediately closed with four single sutures places equidistantly using 5-0 polypropylene threat (Prolene; Ethicon, Johnson & Johnson, Somerville, N.J., USA). Just before closing the abdomen, the animals received either mGluRgIa (MPEP 45.35 mM in vehicle) at a dose of 12.5 mg MPEP/kg (treatment group), or vehicle (0.9% NaC1, 10 w % dimethylacetatamide, ˜50 mM hydrochloride, vehicle group), by injecting the solution into the abdominal cavity. The midline laparotomy was then closed in two layers continuous suture using 5-0 polypropylene for the abdomen and 4-0 for the skin. […] Formation of adhesions between the injury site and other uninjured structures within the abdominal cavity was macroscopically evaluated and quantified using the grading ‘0’ for absence of adhesions or ‘1’ for formed adhesions.

Q: Which results are given for `Cc1cccc(C#Cc2ccccc2)n1` [MPEP, 2-methyl-6-(phenylethynyl)-pyridine]?
A: animals that had developed adhesions (male Sprague-Dawley rats, 12.5 mg MPEP/kg injected into the abdominal cavity just before closing, evaluated macroscopically after one week, vehicle group 4 of 6): 1 of the 6 animals; adhesions at the scar of the incision (picture of open abdomen) (treated rat no. 3 of Example 1, Pic. 1, 18 mm incision on left lateral abdominal wall): no visible adhesions; adhesion grading per animal (six animals, one digit each) (treatment group, 12.5 mg MPEP/kg into the abdominal cavity, one week after surgery, vehicle group=111100): 100000
